Among the data in ChEMBL document CHEMBL1139408, “Synthesis and calpain inhibitory activity of peptidomimetic compounds with constrained amino acids at the P2 position” (Bioorg Med Chem Lett, 2008) are Ki and Selectivity ratio values, retold here.

Where a SMILES comes first, the peptide text is derived from it. [ ]: non-standard residue; d: D form. The star is where a group is joined. Hydrocinnamoyl = O=C(CCc1ccccc1)*; Nle = CCCC[C@H](N)C(=O)O; Ac5c = NC1(C(=O)O)CCCC1; Deg = CCC(N)(CC)C(=O)O

Assay [1] concerns the target T1, Calpain-1 catalytic subunit (Sus scrofa, UniProt P35750).
T1 sequence (P35750 whole entry): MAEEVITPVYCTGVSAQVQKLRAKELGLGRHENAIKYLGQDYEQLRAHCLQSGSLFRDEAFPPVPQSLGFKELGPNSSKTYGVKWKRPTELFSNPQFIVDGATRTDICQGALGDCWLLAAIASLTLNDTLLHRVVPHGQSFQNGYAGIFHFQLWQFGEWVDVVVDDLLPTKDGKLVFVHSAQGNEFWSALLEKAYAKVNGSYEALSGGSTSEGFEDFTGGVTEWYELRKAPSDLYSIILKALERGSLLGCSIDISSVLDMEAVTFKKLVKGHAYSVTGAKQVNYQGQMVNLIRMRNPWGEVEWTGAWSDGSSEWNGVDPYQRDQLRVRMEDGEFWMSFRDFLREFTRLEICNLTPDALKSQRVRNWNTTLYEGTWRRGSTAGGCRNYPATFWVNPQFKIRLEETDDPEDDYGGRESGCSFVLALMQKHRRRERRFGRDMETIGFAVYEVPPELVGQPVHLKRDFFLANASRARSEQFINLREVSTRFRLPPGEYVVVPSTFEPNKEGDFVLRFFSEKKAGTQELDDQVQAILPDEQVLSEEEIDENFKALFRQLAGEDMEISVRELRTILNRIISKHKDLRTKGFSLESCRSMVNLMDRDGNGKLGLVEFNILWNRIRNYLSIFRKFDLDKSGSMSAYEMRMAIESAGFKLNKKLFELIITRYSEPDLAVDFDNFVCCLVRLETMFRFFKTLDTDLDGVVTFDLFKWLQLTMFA
As to the kind of experiment: Inhibition of pig erythrocyte mu-calpain.

Assay [2] addresses Cathepsin B (Homo sapiens, UniProt P07858). The assay can be described thus: Inhibition of human liver cathepsin B.
The nature of assay [3]: Selectivity ratio of Ki for human liver cathepsin B to Ki for pig erythrocyte mu-calpain.

Broadly, the Ki is a measure of affinity in units of concentration, obtained from inhibition or displacement. With `CCC(CC)(NC(=O)CCc1ccccc1)C(=O)N[C@H](C=O)Cc1ccccc1` (Hydrocinnamoyl-[Deg]-Phe-aldehyde), the Ki in assay [1] came out at 80 nM; in assay [2] it was 2910 nM. Also, the Selectivity ratio in assay [3] turned out to be 36.4.
Take `CCCC[C@@H](C=O)NC(=O)[C@H](CC(C)C)NC(=O)[C@H](CC(C)C)NC(C)=O` (Ac-Leu-Leu-[Nle]-aldehyde): the Ki amounted to 190 nM in assay [1] and 150 nM in assay [2].
Regarding `O=C[C@H](Cc1ccccc1)NC(=O)C1(NC(=O)CCc2ccccc2)CCCC1` (Hydrocinnamoyl-[Ac5c]-Phe-aldehyde), the inhibition constant (Ki) amounted to 1940 nM in assay [1] and 880 nM in assay [2]. Also, the Selectivity ratio in assay [3] was 0.45.
